{"source": "patent US8207222B2", "about": "“Nitric oxide releasing derivatives of paracetamol” (Council of Scientific and Industrial Research, priority 2007, dated 2012)", "key": {"[1]": {"test_system": "carrageenan induced rat paw edema", "assay": "carrageenan induced rat paw edema model (anti-inflammatory activity)", "format": "in vivo, Wistar rats", "conditions": "100 mg/kg p.o.; for % Increase in paw volume Mean ± SEM 2 hr: 2 hr after carrageenan challenge; for anti-inflammatory activity (in words): 2 hr and 4 hr; for % Increase in paw volume Mean ± SEM 4 hr: 4 hr after carrageenan challenge", "excerpt": "Animals: Wistar rats (male 150-200 g) of both sex and Laca mice (male, 25-35 g) procured from Central Animal House, Punjab University, Chandigarh, India were used. Animals were housed under standard laboratory conditions and maintained on rat chow, Animals were allowed free access to food and water until used and fasted 24 hr prior to studies.\nExperimental conditions: Unless otherwise stated, the following conditions were employed in all experiments. The test compounds were suspended in 0.5% carboxymethylcellulose (CMC) and administered per orally (p.o.). Control animals were given the corresponding amount of vehicle (0.5%, CMC).\nAnti-inflammatory activity (Table 1): Anti-inflammatory activity was determined by using carrageenan induced rat paw edema model. Rats were divided into different groups and the drugs were administered to each group.\nPaw edema in rats (various modifications and various irritants) is the most widely used method for testing acute and subacute inflammation. It is based upon the ability of anti-inflammatory agents to inhibit the edema produced in the hind paw of the rat after injection of a phlogistic agent. Many phlogistic agents (irritants) have been used, such as brewer's yeast, formaldehyde, dextran, egg albumin, kaolin, sulfated polysaccharides like carrageenin or naphthoylheparamine. The volume of the injected paw is measured before and after application of the irritant and the paw volume of the treated animals is compared to the control. The details of the experiment carried out are described below:\nThe paracetamol (1) and synthesized NO-releasing derivatives (12 and 13) were administered p.o. at a dose of 100 mg/kg, p.o., emulsified in 0.5% sodium carboxy methyl cellulose (0.5% sodium CMC). Anti-inflammatory activity was determined by using carrageenan induced rat paw edema model. Rats were divided into different groups and the drugs/derivatives were administered to each group. Acute edema was induced in left hind paw of rats by injecting freshly prepared solution of carrageenan (Type IV, 0.1 ml, 1%) under plantar region of left hind paw. In the right paw, saline ([…], 0.9%) was injected, which served as control for comparison. The increase in paw volume was measured by using plethysmometer (water displacement, UGO BASILE, Varese, Italy) at 2 hr and 4 hr after carrageenan challenge. Percentage change (increase) in paw volume was calculated and expressed as the amount of inflammation. % increase in paw volume at any time=(V1−Vr)/Vr×100\nWhere, V1 Volume of left paw • Vr=Volume of right paw (control)"}, "[2]": {"test_system": "SGPT/ALT", "assay": "plasma marker of liver injury SGPT/ALT, spectrophotometric kit", "format": "in vivo", "conditions": "1000 mg/kg, 6 hr after administration, vs basal value, mean ± SEM", "method": "(§1) Biochemical Assays (Table 3 and FIG. 2 Sheet No. 1 for SGPT(ALT), and Table 4 and FIG. 3 Sheet No. 2 for ALP): Paracetamol was given at a dose of 1000 mg/Kg and an equivalent dose of 1000 mg/Kg of the derivatives 12 and 13 was given p.o. Before administration blood samples of each animal were taken and after 6 hrs the animals were sacrificed to collect blood samples, and the serum was separated out. Measurement of plasma markers of liver Serum Glutamate oxaloacetate transaminase (SGOT) pyruvate transaminase (SGPT) and Alkaline Phosphatase (ALP) were assayed spectrophotometrically using commercially available kits.\n(§2) The animals were divided into different groups containing 6-8 animals in each group. Animals were lightly anaesthetized with diethyl ether and blood samples were collected which served as the basal reading of the enzyme to be analyzed. These groups of rats were then treated with paracetamol (1000 mg/Kg, i.p.), and equivalent dose of the test compounds. Control group was treated with an equal volume of vehicle (0.9% w/v sodium chloride containing 20% v/v tween-80). Animals were lightly anesthetized with ethyl ether and blood samples were collected and allowed to coagulate at room temperature for 1 hr, serum was then separated by centrifugation (5,000 rpm for 10 min) at 4° C. and stored at −40.0° C. till estimation. Plasma markers of liver injury were assayed spectrophotometrically using following commercially available kits according to standard laboratory techniques:\n(§3) […]. Enzymes like alkaline phosphatase (ALP, EC 3.1.3.1), serum glutamate pyruvate transaminase (SGPT) or alanine aminotransferase (ALT) ([…]) and the total proteins are considered as plasma markers of liver injury. Nitric oxide releasing paracetamol derivatives 12 and 13 were evaluated for their effect on the markers of liver injury like enzymes ALP and SGPT/ALT. The plasma level of these enzymes is found to increase in the case of liver toxicity."}, "[3]": {"target": "T1, cox-2 (ovine) (Ovis aries, UniProt P79208)", "T1 construct": "purchased Cayman Chemical Company, USA", "T1 sequence (P79208 17-603)": "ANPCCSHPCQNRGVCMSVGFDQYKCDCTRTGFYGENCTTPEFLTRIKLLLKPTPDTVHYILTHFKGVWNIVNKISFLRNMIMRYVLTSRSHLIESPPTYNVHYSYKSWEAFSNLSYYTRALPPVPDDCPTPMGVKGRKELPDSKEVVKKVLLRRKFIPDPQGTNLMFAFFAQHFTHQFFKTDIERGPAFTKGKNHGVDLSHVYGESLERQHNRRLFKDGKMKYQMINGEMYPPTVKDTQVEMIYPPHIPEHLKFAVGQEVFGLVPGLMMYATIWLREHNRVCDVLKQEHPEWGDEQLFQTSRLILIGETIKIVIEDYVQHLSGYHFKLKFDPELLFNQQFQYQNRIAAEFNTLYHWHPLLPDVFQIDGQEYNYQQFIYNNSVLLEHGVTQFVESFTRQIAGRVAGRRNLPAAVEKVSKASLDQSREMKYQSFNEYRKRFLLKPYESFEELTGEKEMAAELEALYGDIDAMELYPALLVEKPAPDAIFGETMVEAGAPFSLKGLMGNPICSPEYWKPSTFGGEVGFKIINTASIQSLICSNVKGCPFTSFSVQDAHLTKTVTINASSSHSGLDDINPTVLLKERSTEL", "assay": "In vitro cox-2 (ovine) inhibitory assay", "format": "biochemical", "conditions": "prostaglandin quantified by EIA, concentration not given", "excerpt": "In vitro cox-2 (ovine) inhibitory assay: The prostaglandin product is quantified via enzyme immunoassay (EIA) using a broadly specific antibody that binds to all major prostaglandin compounds. Assay kit was purchased from Cayman Chemical Company, USA."}, "[4]": {"test_system": "liver", "assay": "liver histopathology (haematoxylin and eosin)", "format": "in vivo, mouse", "conditions": "1000 mg/kg, i.p.; H&E stain", "quoted_text": "Histopathology (FIG. 5 Sheet No. 3) For liver histopathology, the livers were removed and portions were fixed in 10% buffered formalin (pH 7.4). They were then processed by standard histopathological techniques, stained with Haematoxylin and Eosin (H&E), and examined for morphologic evaluation for liver injury.^21"}, "[5]": {"test_system": "acetic acid induced writhing", "assay": "acetic acid induced writhing assay (analgesic activity)", "format": "in vivo, Laca mice", "conditions": "100 mg/kg p.o., 30 min prior to i.p. acetic acid, mean ± SEM", "method": "Animals: Wistar rats (male 150-200 g) of both sex and Laca mice (male, 25-35 g) procured from Central Animal House, Punjab University, Chandigarh, India were used. Animals were housed under standard laboratory conditions and maintained on rat chow, Animals were allowed free access to food and water until used and fasted 24 hr prior to studies. Analgesic activity (Table 2 and FIG. 1 Sheet No. 1 FIG. 3): Analgesic activity was determined by using abdominal writhing assay. Mice were divided into different groups containing 6 animals in each group. Pain can be induced by injection of irritants into the peritoneal cavity of mice. The animals react with a characteristic stretching behaviour which is called writhing. An irritating agent such as phenylquinone or acetic acid can be injected intraperitoneally to mice and the stretching reaction is evaluated. The most commonly used methods for measuring peripheral analgesic activity are the writhing tests in mice. The details of the experiment carried out are mentioned below: Analgesic activity was determined against acetic acid induced writhing assay. Writhing was induced by intraperitoneal (i.p.) injection of freshly prepared acetic acid solution. Mice were per orally (p.o.) administered paracetamol (1) and synthesized NO-releasing derivatives (12 and 13) at a dose of 100 mg/kg, emulsified in 0.5% sodium carboxy methyl cellulose (sodium CMC) vehicle, 30 min prior to i.p. acetic acid (1% w/v in saline pH 2.7, 10 ml/kg, i.p.). Animals were immediately transferred to individual observation chambers and number of writhes (constriction of abdomen, turning of trunk, and extension of hind Limbs) were monitored over the following 20 minutes, beginning 3 min after the injection of acetic acid. At the end of observation period the animals were killed by cervical dislocation and exsaguination. The average number of writhes in each group of drug treated mice was compared with that of the control group and degree of analgesia was expressed as % inhibition calculated from the equation: % Inhibition=(1−Nt/Nc)×100 Where, Nc=number of writhes in control • Nt=number of writhes in drug treated mice"}, "[6]": {"test_system": "ALP", "format": "in vivo", "conditions": "1000 mg/kg; 6 hr after administration, vs basal value; mean ± SEM", "method": "as §1, §2, §3"}, "[7]": {"assay": "in vivo nitric oxide release, serum nitrate/nitrite by Cayman kit", "conditions": "for NO serum level: dose of 100 mg/kg body weight, control 182.1±0.68, in µmol/L; for serum nitrate/nitrite concentration: 6 hours after 100 mg/Kg p.o., control 182.1 ± 0.68", "method": "100 mg/Kg of the derivatives 12 and 13 was given p.o. After 6 hours the animals were sacrificed to collect blood samples and the serum was separated out to find out the levels of NO. Plasma nitrate/nitrite concentration level was measured by commercially available Cayman Kit."}}, "note": "Several values for one entry are separate records, joined by “and”; a condition that tells them apart may be missing. Equal entries are not always repeated. Entries after “also recorded” stand apart in the source; their conditions may differ. Marks after values point to notes of the source that are not given here."}
{"smiles": "CC(=O)Nc1ccc(O)cc1", "note": "[Compound 1, N-(4-hydroxyphenyl)-acetamide, reference compound]", "values": [{"measurement": "% Increase in paw volume Mean ± SEM 2 hr", "setting": "[1]", "result": "38.37 ± 1.26", "unit": "%"}, {"measurement": "% Increase in paw volume Mean ± SEM 2 hr", "setting": "[1]; listed as paracetamol", "result": "38.37±1.26", "unit": "%"}, {"measurement": "% Increase in paw volume Mean ± SEM 2 hr", "setting": "[1]; listed as paracetamol (1)", "result": "38.37±1.26", "unit": "%"}, {"measurement": "anti-inflammatory activity (in words)", "setting": "[1]", "result": "No significant activity"}, {"measurement": "% Increase in paw volume Mean ± SEM 4 hr", "setting": "[1]", "result": "58.92 ± 1.56", "unit": "%"}, {"measurement": "% Increase in paw volume Mean ± SEM 4 hr", "setting": "[1]; listed as paracetamol", "result": "58.92±1.56", "unit": "%"}, {"measurement": "% Increase in paw volume Mean ± SEM 4 hr", "setting": "[1]; listed as paracetamol (1)", "result": "58.92±1.56", "unit": "%"}, {"measurement": "% INCREASE IN SGPT/ALT LEVEL", "setting": "[2]; listed as Paracetamol (1)", "result": "83.11 ± 3.3", "unit": "%"}, {"measurement": "% INCREASE IN SGPT/ALT LEVEL", "setting": "[2]; listed as paracetamol (1)", "result": "more than 80%"}, {"measurement": "cox-2 (ovine) inhibition", "setting": "[3]", "result": 24.0, "unit": "%"}, {"measurement": "liver damage in histopathology (light microscopy)", "setting": "[4]", "result": "ballooning degeneration, sinusoidal decongestion, portal triad inflammation and spoty necrosis in Zone I"}, {"measurement": "% INHIBITION IN WRITHINGS", "setting": "[5]", "result": "45.36 ± 1.34", "unit": "%"}, {"measurement": "% INHIBITION IN WRITHINGS", "setting": "[5]; listed as paracetamol (1)", "result": "45.36±1.34", "unit": "%"}, {"measurement": "% INCREASE IN ALP LEVEL", "setting": "[6]", "result": "15.75 ± 1.07", "unit": "%"}]}
{"smiles": "CC(=O)Nc1ccc(OCCO[N+](=O)[O-])cc1", "note": "[Compound 12, N-[4-(2-Nitrooxy-ethoxy)-phenyl]-acetamide]", "values": [{"measurement": "% Increase in paw volume Mean ± SEM 2 hr", "setting": "[1]", "result": "32.68±1.45", "unit": "%"}, {"measurement": "anti-inflammatory activity (in words)", "setting": "[1]", "result": "good anti-inflammatory activity"}, {"measurement": "% Increase in paw volume Mean ± SEM 4 hr", "setting": "[1]", "result": "26.44±0.10% and 26.44 ± .10%"}, {"measurement": "% INCREASE IN SGPT/ALT LEVEL", "setting": "[2]", "result": "27.94 ± 2.7*^,# %"}, {"measurement": "cox-2 (ovine) inhibition", "setting": "[3]", "result": 21.0, "unit": "%"}, {"measurement": "liver damage in histopathology (light microscopy)", "setting": "[4]", "result": "Mild ballooning degeneration"}, {"measurement": "% INHIBITION IN WRITHINGS", "setting": "[5]", "result": "58.35±1.50", "unit": "%"}, {"measurement": "% INCREASE IN ALP LEVEL", "setting": "[6]", "result": "4.17 ± 0.62", "unit": "%"}, {"measurement": "NO serum level", "setting": "[7]", "result": "354.2±2.17"}, {"measurement": "serum nitrate/nitrite concentration", "setting": "[7]", "result": "354.2 ± 2.17", "unit": "µmol/L"}]}
{"smiles": "CC(=O)Nc1ccc(OCCCCCO[N+](=O)[O-])cc1", "note": "[Compound 13, N-[4-(5-Nitrooxy-pentoxy)-phenyl]-acetamide]", "values": [{"measurement": "% Increase in paw volume Mean ± SEM 2 hr", "setting": "[1]", "result": "31.15±1.31", "unit": "%"}, {"measurement": "% Increase in paw volume Mean ± SEM 4 hr", "setting": "[1]", "result": "28.45±1.28", "unit": "%"}, {"measurement": "% INCREASE IN SGPT/ALT LEVEL", "setting": "[2]", "result": "11.72 ± 1.4*^,# %"}, {"measurement": "cox-2 (ovine) inhibition", "setting": "[3]", "result": 32.5, "unit": "%"}, {"measurement": "liver damage in histopathology (light microscopy)", "setting": "[4]", "result": "didn't cause any significant damage to the liver; also recorded: no significant damage"}, {"measurement": "% INHIBITION IN WRITHINGS", "setting": "[5]", "result": "61.80±1.69", "unit": "%"}, {"measurement": "% INCREASE IN ALP LEVEL", "setting": "[6]", "result": "2.85 ± 0.83", "unit": "%"}, {"measurement": "NO serum level", "setting": "[7]", "result": "265.4±2.47"}, {"measurement": "serum nitrate/nitrite concentration", "setting": "[7]", "result": "265.4 ± 2.47", "unit": "µmol/L"}]}
{"smiles": "CC(=O)Nc1ccc(OCCCCO[N+](=O)[O-])cc1", "note": "[Compound 19, N-[4-(4-Nitrooxy-butoxy)-phenyl]-acetamide]", "values": [{"measurement": "melting point", "result": "92 to 98", "unit": "°C"}]}
